# Experimental data published in the supplement of paper PMC10307832.
# Key:
# Assay in all cases: relative viability (nuclei count vs DMSO), 5 days (fraction); higher = more cells survive
# IU1-47 + Alpelisib = compound: CC1=CC(=C(N1C2=CC=C(C=C2)Cl)C)C(=O)CN3CCCCC3 [IU1-47] + Cc1nc(NC(=O)N2CCC[C@H]2C(N)=O)sc1-c1ccnc(C(C)(C)C(F)(F)F)c1 [Alpelisib] (partner 2 µM)
# Method in brief: (§1)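 Lung cancer cell lines, seeded in 1536-well plates, were treated the following day by pin tool with a single drug or with five library-drug doses (not always all listed) in √10 steps on top of a fixed anchor-drug dose. Cells were fixed and nuclei stained in one step after 5 days, and nuclei were counted. Relative viability is the nuclei count for treated wells divided by that for vehicle wells, reported as medians of duplicate plates.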
# IU1-47 + Dasatinib = compound: CC1=CC(=C(N1C2=CC=C(C=C2)Cl)C)C(=O)CN3CCCCC3 [IU1-47] + Cc1nc(Nc2ncc(C(=O)Nc3c(C)cccc3Cl)s2)cc(N2CCN(CCO)CC2)n1 [Dasatinib] (partner 0.075 µM)
# Method in brief: as §1
# FG-4592 + Foretinib = compound: Cc1nc(C(=O)NCC(=O)O)c(O)c2ccc(Oc3ccccc3)cc12 [FG-4592] + COc1cc2c(Oc3ccc(NC(=O)C4(C(=O)Nc5ccc(F)cc5)CC4)cc3F)ccnc2cc1OCCCN1CCOCC1 [Foretinib] (partner 0.25 µM)
# Method in brief: as §1
# FG-4592 + Phenformin = compound: Cc1nc(C(=O)NCC(=O)O)c(O)c2ccc(Oc3ccccc3)cc12 [FG-4592] + N=C(N)NC(=N)NCCc1ccccc1 [Phenformin] (partner 250 µM)
# Method in brief: as §1
cell line,measurement,setting,value
NCI-H650,relative viability,IU1-47 + Alpelisib; first compound 0.08 µM,1.28
same,relative viability,IU1-47 + Alpelisib; first compound 0.253 µM,1.14
same,relative viability,IU1-47 + Alpelisib; first compound 0.8 µM,1.2
same,relative viability,IU1-47 + Alpelisib; first compound 2.53 µM,1.09
same,relative viability,IU1-47 + Alpelisib; first compound 8 µM,1.01
same,relative viability,IU1-47 + Dasatinib; first compound 0.08 µM,0.457
same,relative viability,IU1-47 + Dasatinib; first compound 0.253 µM,0.439
same,relative viability,IU1-47 + Dasatinib; first compound 0.8 µM,0.476
same,relative viability,IU1-47 + Dasatinib; first compound 2.53 µM,0.427
same,relative viability,IU1-47 + Dasatinib; first compound 8 µM,0.445
same,relative viability,FG-4592 + Foretinib; first compound 0.08 µM,0.997
same,relative viability,FG-4592 + Foretinib; first compound 0.253 µM,0.961
same,relative viability,FG-4592 + Foretinib; first compound 0.8 µM,0.882
same,relative viability,FG-4592 + Foretinib; first compound 2.53 µM,0.991
same,relative viability,FG-4592 + Foretinib; first compound 8 µM,0.861
same,relative viability,FG-4592 + Phenformin; first compound 0.08 µM,0.393
same,relative viability,FG-4592 + Phenformin; first compound 0.253 µM,0.445
same,relative viability,FG-4592 + Phenformin; first compound 0.8 µM,0.406
same,relative viability,FG-4592 + Phenformin; first compound 2.53 µM,0.49
same,relative viability,FG-4592 + Phenformin; first compound 8 µM,0.437
NCI-H661,relative viability,IU1-47 + Alpelisib; first compound 0.08 µM,0.909
same,relative viability,IU1-47 + Alpelisib; first compound 0.253 µM,0.603
same,relative viability,IU1-47 + Alpelisib; first compound 0.8 µM,0.581
same,relative viability,IU1-47 + Alpelisib; first compound 2.53 µM,0.593
same,relative viability,IU1-47 + Alpelisib; first compound 8 µM,0.404
same,relative viability,IU1-47 + Dasatinib; first compound 0.08 µM,0.884
same,relative viability,IU1-47 + Dasatinib; first compound 0.253 µM,0.879
same,relative viability,IU1-47 + Dasatinib; first compound 0.8 µM,0.83
same,relative viability,IU1-47 + Dasatinib; first compound 2.53 µM,0.77
same,relative viability,IU1-47 + Dasatinib; first compound 8 µM,0.695
same,relative viability,FG-4592 + Foretinib; first compound 0.08 µM,1.06
same,relative viability,FG-4592 + Foretinib; first compound 0.253 µM,0.956
same,relative viability,FG-4592 + Foretinib; first compound 0.8 µM,1.09
same,relative viability,FG-4592 + Foretinib; first compound 2.53 µM,0.987
same,relative viability,FG-4592 + Foretinib; first compound 8 µM,0.938
same,relative viability,FG-4592 + Phenformin; first compound 0.08 µM,0.271
same,relative viability,FG-4592 + Phenformin; first compound 0.253 µM,0.281
same,relative viability,FG-4592 + Phenformin; first compound 0.8 µM,0.264
same,relative viability,FG-4592 + Phenformin; first compound 2.53 µM,0.274
same,relative viability,FG-4592 + Phenformin; first compound 8 µM,0.276
NCI-H727,relative viability,IU1-47 + Alpelisib; first compound 0.08 µM,0.712
same,relative viability,IU1-47 + Alpelisib; first compound 0.8 µM,0.647
same,relative viability,IU1-47 + Alpelisib; first compound 2.53 µM,0.626
same,relative viability,IU1-47 + Alpelisib; first compound 8 µM,0.377
same,relative viability,IU1-47 + Dasatinib; first compound 0.08 µM,0.396
same,relative viability,IU1-47 + Dasatinib; first compound 0.253 µM,0.398
same,relative viability,IU1-47 + Dasatinib; first compound 0.8 µM,0.362
same,relative viability,IU1-47 + Dasatinib; first compound 2.53 µM,0.289
same,relative viability,IU1-47 + Dasatinib; first compound 8 µM,0.442
same,relative viability,FG-4592 + Foretinib; first compound 0.08 µM,0.934
same,relative viability,FG-4592 + Foretinib; first compound 0.253 µM,0.617
same,relative viability,FG-4592 + Foretinib; first compound 0.8 µM,1.08
same,relative viability,FG-4592 + Foretinib; first compound 2.53 µM,0.999
same,relative viability,FG-4592 + Foretinib; first compound 8 µM,1.11
same,relative viability,FG-4592 + Phenformin; first compound 0.08 µM,0.543
same,relative viability,FG-4592 + Phenformin; first compound 0.253 µM,0.341
same,relative viability,FG-4592 + Phenformin; first compound 0.8 µM,0.378
same,relative viability,FG-4592 + Phenformin; first compound 2.53 µM,0.643
same,relative viability,FG-4592 + Phenformin; first compound 8 µM,0.609
NCI-H838,relative viability,IU1-47 + Alpelisib; first compound 0.08 µM,1.04
same,relative viability,IU1-47 + Alpelisib; first compound 0.253 µM,1.03
same,relative viability,IU1-47 + Alpelisib; first compound 0.8 µM,1.05
same,relative viability,IU1-47 + Alpelisib; first compound 2.53 µM,1.08
same,relative viability,IU1-47 + Alpelisib; first compound 8 µM,0.859
same,relative viability,IU1-47 + Dasatinib; first compound 0.08 µM,0.31
same,relative viability,IU1-47 + Dasatinib; first compound 0.253 µM,0.31
same,relative viability,IU1-47 + Dasatinib; first compound 0.8 µM,0.32
same,relative viability,IU1-47 + Dasatinib; first compound 2.53 µM,0.3
same,relative viability,IU1-47 + Dasatinib; first compound 8 µM,0.281
same,relative viability,FG-4592 + Foretinib; first compound 0.08 µM,1.06
same,relative viability,FG-4592 + Foretinib; first compound 0.253 µM,0.922
same,relative viability,FG-4592 + Foretinib; first compound 0.8 µM,1.08
same,relative viability,FG-4592 + Foretinib; first compound 2.53 µM,1.06
same,relative viability,FG-4592 + Foretinib; first compound 8 µM,0.969
same,relative viability,FG-4592 + Phenformin; first compound 0.08 µM,0.545
same,relative viability,FG-4592 + Phenformin; first compound 0.253 µM,0.581
same,relative viability,FG-4592 + Phenformin; first compound 0.8 µM,0.5
same,relative viability,FG-4592 + Phenformin; first compound 2.53 µM,0.505
same,relative viability,FG-4592 + Phenformin; first compound 8 µM,0.583
NCI-H1355,relative viability,IU1-47 + Alpelisib; first compound 0.08 µM,0.89
same,relative viability,IU1-47 + Alpelisib; first compound 0.253 µM,0.948
same,relative viability,IU1-47 + Alpelisib; first compound 0.8 µM,0.894
same,relative viability,IU1-47 + Alpelisib; first compound 2.53 µM,0.797
same,relative viability,IU1-47 + Alpelisib; first compound 8 µM,0.79
same,relative viability,IU1-47 + Dasatinib; first compound 0.08 µM,0.655
same,relative viability,IU1-47 + Dasatinib; first compound 0.253 µM,0.798
same,relative viability,IU1-47 + Dasatinib; first compound 0.8 µM,0.706
same,relative viability,IU1-47 + Dasatinib; first compound 8 µM,0.667
same,relative viability,FG-4592 + Foretinib; first compound 0.08 µM,0.987
same,relative viability,FG-4592 + Foretinib; first compound 0.253 µM,0.678
same,relative viability,FG-4592 + Foretinib; first compound 0.8 µM,0.93
same,relative viability,FG-4592 + Foretinib; first compound 2.53 µM,1.02
same,relative viability,FG-4592 + Foretinib; first compound 8 µM,0.971
same,relative viability,FG-4592 + Phenformin; first compound 0.08 µM,0.378
same,relative viability,FG-4592 + Phenformin; first compound 0.253 µM,0.422
same,relative viability,FG-4592 + Phenformin; first compound 0.8 µM,0.358
same,relative viability,FG-4592 + Phenformin; first compound 2.53 µM,0.431
same,relative viability,FG-4592 + Phenformin; first compound 8 µM,0.449
NCI-H1395,relative viability,IU1-47 + Alpelisib; first compound 0.08 µM,1.07
same,relative viability,IU1-47 + Alpelisib; first compound 0.253 µM,1.01
same,relative viability,IU1-47 + Alpelisib; first compound 0.8 µM,1.04
same,relative viability,IU1-47 + Alpelisib; first compound 8 µM,0.991
same,relative viability,IU1-47 + Dasatinib; first compound 0.08 µM,0.422
same,relative viability,IU1-47 + Dasatinib; first compound 0.253 µM,0.451
same,relative viability,IU1-47 + Dasatinib; first compound 0.8 µM,0.457
same,relative viability,IU1-47 + Dasatinib; first compound 2.53 µM,0.374
same,relative viability,IU1-47 + Dasatinib; first compound 8 µM,0.374
same,relative viability,FG-4592 + Foretinib; first compound 0.08 µM,1.06
same,relative viability,FG-4592 + Foretinib; first compound 0.253 µM,0.889
same,relative viability,FG-4592 + Foretinib; first compound 0.8 µM,0.981
same,relative viability,FG-4592 + Foretinib; first compound 2.53 µM,0.997
same,relative viability,FG-4592 + Foretinib; first compound 8 µM,0.963
same,relative viability,FG-4592 + Phenformin; first compound 0.08 µM,0.408
same,relative viability,FG-4592 + Phenformin; first compound 0.253 µM,0.46
same,relative viability,FG-4592 + Phenformin; first compound 0.8 µM,0.397
same,relative viability,FG-4592 + Phenformin; first compound 2.53 µM,0.408
same,relative viability,FG-4592 + Phenformin; first compound 8 µM,0.415
NCI-H1437,relative viability,IU1-47 + Alpelisib; first compound 0.08 µM,1.13
same,relative viability,IU1-47 + Alpelisib; first compound 0.253 µM,0.967
same,relative viability,IU1-47 + Alpelisib; first compound 0.8 µM,0.921
same,relative viability,IU1-47 + Alpelisib; first compound 2.53 µM,1.05
same,relative viability,IU1-47 + Alpelisib; first compound 8 µM,0.718
same,relative viability,IU1-47 + Dasatinib; first compound 0.08 µM,0.369
same,relative viability,IU1-47 + Dasatinib; first compound 0.253 µM,0.348
same,relative viability,IU1-47 + Dasatinib; first compound 0.8 µM,0.384
same,relative viability,IU1-47 + Dasatinib; first compound 2.53 µM,0.35
same,relative viability,IU1-47 + Dasatinib; first compound 8 µM,0.365
same,relative viability,FG-4592 + Foretinib; first compound 0.08 µM,1.24
same,relative viability,FG-4592 + Foretinib; first compound 0.253 µM,1.19
same,relative viability,FG-4592 + Foretinib; first compound 0.8 µM,1.29
same,relative viability,FG-4592 + Foretinib; first compound 2.53 µM,1.3
same,relative viability,FG-4592 + Foretinib; first compound 8 µM,1.04
same,relative viability,FG-4592 + Phenformin; first compound 0.08 µM,0.297
same,relative viability,FG-4592 + Phenformin; first compound 0.253 µM,0.355
same,relative viability,FG-4592 + Phenformin; first compound 0.8 µM,0.343
same,relative viability,FG-4592 + Phenformin; first compound 2.53 µM,0.287
same,relative viability,FG-4592 + Phenformin; first compound 8 µM,0.31
NCI-H1563,relative viability,IU1-47 + Alpelisib; first compound 0.08 µM,0.909
same,relative viability,IU1-47 + Alpelisib; first compound 0.253 µM,0.87
same,relative viability,IU1-47 + Alpelisib; first compound 0.8 µM,0.871
same,relative viability,IU1-47 + Alpelisib; first compound 2.53 µM,0.942
same,relative viability,IU1-47 + Alpelisib; first compound 8 µM,0.816
same,relative viability,IU1-47 + Dasatinib; first compound 0.08 µM,0.532
same,relative viability,IU1-47 + Dasatinib; first compound 0.253 µM,0.481
same,relative viability,IU1-47 + Dasatinib; first compound 0.8 µM,0.429
same,relative viability,IU1-47 + Dasatinib; first compound 2.53 µM,0.462
same,relative viability,IU1-47 + Dasatinib; first compound 8 µM,0.447
same,relative viability,FG-4592 + Foretinib; first compound 0.08 µM,0.995
same,relative viability,FG-4592 + Foretinib; first compound 0.253 µM,0.961
same,relative viability,FG-4592 + Foretinib; first compound 0.8 µM,0.866
same,relative viability,FG-4592 + Foretinib; first compound 2.53 µM,1.01
same,relative viability,FG-4592 + Foretinib; first compound 8 µM,0.82
same,relative viability,FG-4592 + Phenformin; first compound 0.08 µM,0.663
same,relative viability,FG-4592 + Phenformin; first compound 0.253 µM,0.735
same,relative viability,FG-4592 + Phenformin; first compound 0.8 µM,0.684
same,relative viability,FG-4592 + Phenformin; first compound 2.53 µM,0.665
same,relative viability,FG-4592 + Phenformin; first compound 8 µM,0.603
